# Literature values in patent publication US9364476B2, “Methods of treating a Bruton's Tyrosine Kinase disease or disorder” (Celgene Avilomics Research, Inc., priority 2011, dated 2016).
# Columns and labels:
# [1] = molecular target: Spleen tyrosine kinase (Syk) (Homo sapiens, UniProt P43405); details: DLBCL, CLL, and mantle cell lymphoma; cited from earlier work
# B-cell = details: cited from earlier work
# Btk = Btk (Homo sapiens, UniProt Q06187); details: enzymatic and cellular assays; cited from earlier work
# Btk, sequence (Q06187 whole entry, species assumed): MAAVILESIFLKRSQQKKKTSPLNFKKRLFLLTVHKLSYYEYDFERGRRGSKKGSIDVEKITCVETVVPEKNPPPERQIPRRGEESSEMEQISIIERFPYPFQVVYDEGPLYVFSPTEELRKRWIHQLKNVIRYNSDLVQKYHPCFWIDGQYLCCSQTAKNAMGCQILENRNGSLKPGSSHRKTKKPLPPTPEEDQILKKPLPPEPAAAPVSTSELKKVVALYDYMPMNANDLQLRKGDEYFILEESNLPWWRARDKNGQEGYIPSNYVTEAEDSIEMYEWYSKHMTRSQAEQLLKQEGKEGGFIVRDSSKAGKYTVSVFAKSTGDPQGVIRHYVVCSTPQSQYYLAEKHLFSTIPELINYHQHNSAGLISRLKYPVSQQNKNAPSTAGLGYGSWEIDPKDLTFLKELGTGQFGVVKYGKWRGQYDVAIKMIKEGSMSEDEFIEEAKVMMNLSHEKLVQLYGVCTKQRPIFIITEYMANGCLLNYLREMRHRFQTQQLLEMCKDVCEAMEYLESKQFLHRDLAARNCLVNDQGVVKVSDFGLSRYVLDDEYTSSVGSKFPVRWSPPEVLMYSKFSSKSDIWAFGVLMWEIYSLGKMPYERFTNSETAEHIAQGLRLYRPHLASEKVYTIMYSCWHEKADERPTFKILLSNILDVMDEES
smiles,measurement,setting,value
COc1cc(Nc2ncc(F)c(Nc3ccc4c(n3)N(COP(=O)(O)O)C(=O)C(C)(C)O4)n2)cc(OC)c1OC [fostamatinib disodium],clinical response,[1],clinical responses
"C=CC(=O)Nc1cccc(Nc2nc(Nc3ccc(OCCOC)cc3)ncc2F)c1 [Compound 1, N-(3-(5-fluoro-2-(4-(2-methoxyethoxy)phenylamino)pyrimidin-4-ylamino)phenyl)acrylamide]",effect on B-cell proliferation and activation,B-cell,inhibit B-cell proliferation and activation
same,mode of BTK inhibition,Btk,"covalent, irreversible inhibition of BTK"
